Measurements as given in patent US12466829B2, “Spirocyclic piperidine melanocortin subtype-2 receptor (MC2R) antagonists and uses thereof” (Crinetics Pharmaceuticals, Inc., priority 2019, dated 2025).
pKi: −log10 of the molar value.

molecular target: T1, hMC2 receptor (Homo sapiens, UniProt Q01718); assay: hMC2 membrane binding assay ([125I]ACTH (1-39) Tyr23, SPA); details: crude membranes of CRE-bla-CHO-K1 cells expressing hMC2 receptor and hMRAP; 0.2 nM [125I]ACTH (1-39) Tyr23; 1.5 hours at room temperature; read-out: MC2R binding potency
T1 construct: host or cells: CRE-bla-CHO-K1 cells
Protocol: Crude membrane fractions are prepared from CRE-bla-CHO-K1 cells stably expressing hMC2 receptor and hMRAP accessory protein (Thermo Fisher). The cells are grown to 85-100% confluence on standard tissue culture dishes in GlutaMax DMEM growth media (Gibco) with following additives: 10% dialyzed FBS (Gemini), 0.1 mM NEAA (Gibco), 25 mM HEPES (Gibco), 5 μg/mL blasticidin (Goldbio), 100 μg/mL zeocin (Invitrogen), 600 μg/mL hygromycin (Goldbio). To prepare membranes, cells are scraped and collected in 1× Dulbecco's phosphate buffered saline (Corning) and then pelleted at 1000 RPM's. The cell pellet is reconstituted in membrane preparation buffer (20 mM HEPES, 6 mM MgCl2 and 1 mM EGTA, protease inhibitor tablets (Pierce) adjusted to pH 7.4), homogenized using a dounce homogenizer, and the resulting membrane fraction is pelleted by centrifugation at 12,000 RPM's. The membrane pellet is resuspended in membrane preparation buffer, snap freezed and stored at −80° C. for later use.
The hMC2 membrane binding assay utilizes the following components: radiolabel [^125I]ACTH (1-39) Tyr23 (PerkinElmer), wheatgerm agglutinin coated PVT SPA beads (PerkinElmer), crude hMC2R membranes, and compounds. Briefly hMC2R membranes are incubated with SPA beads in binding assay buffer (50 mM HEPES, 5 mM MgCl2, 1 mM CaCl2), 0.2% BSA, protease inhibitor tablets (Pierce) adjusted to pH7.4) prior to assay initiation. […] Assay plates are read using a Top Count NXT and Ki values for compounds are determined using a GraphPad Prism 6 non-linear regression analysis.

T1 sequence (Q01718 whole entry): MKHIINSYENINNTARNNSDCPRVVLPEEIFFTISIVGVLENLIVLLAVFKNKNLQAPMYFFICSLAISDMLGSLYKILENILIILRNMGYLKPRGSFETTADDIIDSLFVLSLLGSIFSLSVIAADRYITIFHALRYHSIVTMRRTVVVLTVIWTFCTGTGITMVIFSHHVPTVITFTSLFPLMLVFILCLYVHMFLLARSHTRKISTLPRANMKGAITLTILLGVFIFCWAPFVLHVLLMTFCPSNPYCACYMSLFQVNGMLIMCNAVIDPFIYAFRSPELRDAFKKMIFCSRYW
T1 sequence (Q8TCY5 whole entry partner): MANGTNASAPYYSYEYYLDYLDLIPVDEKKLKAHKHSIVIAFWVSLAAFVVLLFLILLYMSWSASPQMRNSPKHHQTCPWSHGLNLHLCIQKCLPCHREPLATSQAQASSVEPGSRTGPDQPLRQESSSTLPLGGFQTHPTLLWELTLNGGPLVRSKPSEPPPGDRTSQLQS

“2-[1′-(3-aminopropyl)-7′-(2-ethoxypyridin-3-yl)-2′-oxo-2′,3′-dihydro-1′H-spiro[piperidine-4,4′-quinolin]-1-yl]-5-(trifluoromethyl)benzonitrile [1-67]” and `CCOc1ncccc1-c1ccc2c(c1)N(C(=O)CN)CC21CCN(c2ccc(C(F)(F)F)cc2C#N)CC1` [1-1, 2-[1-(2-aminoacetyl)-6-(2-ethoxypyridin-3-yl)-1,2-dihydrospiro[indole-3,4′-piperidin]-1′-yl]-5-(trifluoromethyl)benzonitrile] fall in the same range of pKi: 7.00 to 8.00 for the first, 7.00 to 8.00 for the second.

`CCOc1ccccc1-c1ccc2c(c1)N(C(=O)CN)CC21CCN(c2ccc(C(F)(F)F)cc2C#N)CC1` [1-2, 2-[1-(2-aminoacetyl)-6-(2-ethoxyphenyl)-1,2-dihydrospiro[indole-3,4′-piperidin]-1′-yl]-5-(trifluoromethyl)benzonitrile] and `CCOc1ncccc1-c1ccc2c(c1)N(C(=O)CCN)CC21CCN(c2ccc(C(F)(F)F)cc2C#N)CC1` [1-3, 2-[1-(3-aminopropanoyl)-6-(2-ethoxypyridin-3-yl)-1,2-dihydrospiro[indole-3,4′-piperidin]-1′-yl]-5-(trifluoromethyl)benzonitrile] fall in the same range of pKi: 7.00 to 8.00 for the first, 7.00 to 8.00 for the second.

`CCOc1ncccc1-c1ccc2c(c1)N(C(=O)C[C@H](C)N)CC21CCN(c2ccc(C(F)(F)F)cc2C#N)CC1` [1-5, 2-{1-[(3 S)-3-aminobutanoyl]-6-(2-ethoxypyridin-3-yl)-1,2-dihydrospiro[indole-3,4′-piperidin]-1′-yl}-5-(trifluoromethyl)benzonitrile] and `CCOc1ncccc1-c1ccc2c(c1)N(C(=O)C[C@@H](C)N)CC21CCN(c2ccc(C(F)(F)F)cc2C#N)CC1` [1-6, 2-{1-[(3R)-3-aminobutanoyl]-6-(2-ethoxypyridin-3-yl)-1,2-dihydrospiro[indole-3,4′-piperidin]-1′-yl}-5-(trifluoromethyl)benzonitrile] fall in the same range of pKi: 7.00 to 8.00 for the first, 7.00 to 8.00 for the second.

First: CCOc1ncccc1-c1ccc2c(c1)N(C(=O)CCN)CC21CCN(c2ccc(C(F)(F)F)cc2Cl)CC1 [1-7, 3-amino-1-{1′-[2-chloro-4-(trifluoromethyl)phenyl]-6-(2-ethoxypyridin-3-yl)-1,2-dihydrospiro[indole-3,4′-piperidin]-1-yl}propan-1-one]
Second: CCOc1ncccc1-c1ccc2c(c1)N(C(=O)CCN)CC21CCN(c2cc(C#N)cc(C(F)(F)F)c2)CC1 [1-8, 3-[1-(3-aminopropanoyl)-6-(2-ethoxypyridin-3-yl)-1,2-dihydrospiro[indole-3,4′-piperidin]-1′-yl]-5-(trifluoromethyl)benzonitrile]
The pKi of the first is higher: 7.00 to 8.00 for the first, 5.00 to 6.00 for the second.

`CCOc1ncccc1-c1ccc2c(c1)N(C(=O)[C@@H]1CCNC1)CC21CCN(c2ccc(C(F)(F)F)cc2C#N)CC1` [1-9, 2-[6-(2-ethoxypyridin-3-yl)-1-[(3R)-pyrrolidine-3-carbonyl]-1,2-dihydrospiro[indole-3,4′-piperidin]-1′-yl]-5-(trifluoromethyl)benzonitrile] and `CCOc1ncccc1-c1ccc2c(c1)N(C(=O)[C@H]1CCNC1)CC21CCN(c2ccc(C(F)(F)F)cc2C#N)CC1` [1-10, 2-[6-(2-ethoxypyridin-3-yl)-1-[(3S)-pyrrolidine-3-carbonyl]-1,2-dihydrospiro[indole-3,4′-piperidin]-1′-yl]-5-(trifluoromethyl)benzonitrile] fall in the same range of pKi: 7.00 to 8.00 for the first, 7.00 to 8.00 for the second.

`CCOc1ncccc1-c1ccc2c(c1)N(C(=O)CCCN)CC21CCN(c2ccc(C(F)(F)F)cc2C#N)CC1` [1-11, 2-[1-(4-aminobutanoyl)-6-(2-ethoxypyridin-3-yl)-1,2-dihydrospiro[indole-3,4′-piperidin]-1′-yl]-5-(trifluoromethyl)benzonitrile] and `CCOc1ncccc1-c1ccc2c(c1)N(CCN)CC21CCN(c2ccc(C(F)(F)F)cc2C#N)CC1` [1-12, 2-[1-(2-aminoethyl)-6-(2-ethoxypyridin-3-yl)-1,2-dihydrospiro[indole-3,4′-piperidin]-1′-yl]-5-(trifluoromethyl)benzonitrile] fall in the same range of pKi: 7.00 to 8.00 for the first, 7.00 to 8.00 for the second.

First: CCOc1ncccc1-c1ccc2c(c1)N(C[C@@H](C)N)CC21CCN(c2ccc(C(F)(F)F)cc2C#N)CC1 [1-13, 2-{1-[(2R)-2-aminopropyl]-6-(2-ethoxypyridin-3-yl)-1,2-dihydrospiro[indole-3,4′-piperidin]-1′-yl}-5-(trifluoromethyl)benzonitrile]
Second: CCOc1ncccc1-c1ccc2c(c1)N(C[C@H](C)N)CC21CCN(c2ccc(C(F)(F)F)cc2C#N)CC1 [1-14, 2-{1-[(2S)-2-aminopropyl]-6-(2-ethoxypyridin-3-yl)-1,2-dihydrospiro[indole-3,4′-piperidin]-1′-yl}-5-(trifluoromethyl)benzonitrile]
The pKi of the first is higher: > 8.00 for the first, 7.00 to 8.00 for the second.

First: CCOc1ncccc1-c1ccc2c(c1)N(CCN)C(=O)C21CCN(c2ccc(C(F)(F)F)cc2C#N)CC1 [1-16, 2-[1-(2-aminoethyl)-6-(2-ethoxypyridin-3-yl)-2-oxo-1,2-dihydrospiro[indole-3,4′-piperidin]-1′-yl]-5-(trifluoromethyl)benzonitrile]
Second: CCOc1ncccc1-c1ccc2c(c1)N([C@H]1CCNC1)C(=O)C21CCN(c2ccc(C(F)(F)F)cc2C#N)CC1 [1-17, 2-[6-(2-ethoxypyridin-3-yl)-2-oxo-1-[(3S)-pyrrolidin-3-yl]-1,2-dihydrospiro[indole-3,4′-piperidin]-1′-yl]-5-(trifluoromethyl)benzonitrile]
The pKi of the first is higher: > 8.00 for the first, 7.00 to 8.00 for the second. The first binds more tightly here.

First: CCOc1ncccc1-c1ccc2c(c1)N([C@@H]1CCNC1)C(=O)C21CCN(c2ccc(C(F)(F)F)cc2C#N)CC1 [1-18, 2-[6-(2-ethoxypyridin-3-yl)-2-oxo-1-[(3R)-pyrrolidin-3-yl]-1,2-dihydrospiro[indole-3,4′-piperidin]-1′-yl]-5-(trifluoromethyl)benzonitrile]
Second: CCOc1ncccc1-c1ccc2c(c1)N(C(=O)CCN)CC21CCN(c2cc(C#N)cc(C(F)(F)F)n2)CC1 [1-19, 2-[1-(3-aminopropanoyl)-6-(2-ethoxypyridin-3-yl)-1,2-dihydrospiro[indole-3,4′-piperidin]-1′-yl]-6-(trifluoromethyl)pyridine-4-carbonitrile]
The pKi of the first is higher: > 8.00 for the first, 5.00 to 6.00 for the second.

First: CCOc1ncccc1-c1ccc2c(c1)N(C(=O)CCN)CC21CCN(c2ccc(F)c(C(F)(F)F)n2)CC1 [1-20, 3-amino-1-[6-(2-ethoxypyridin-3-yl)-1′-[5-fluoro-6-(trifluoromethyl)pyridin-2-yl]-1,2-dihydrospiro[indole-3,4′-piperidin]-1-yl]propan-1-one]
Second: CCOc1ncccc1-c1ccc2c(c1)N([C@@H]1CCN(C)C1)C(=O)C21CCN(c2ccc(C(F)(F)F)cc2C#N)CC1 [1-21, 2-[6-(2-ethoxypyridin-3-yl)-1-[(3R)-1-methylpyrrolidin-3-yl]-2-oxo-1,2-dihydrospiro[indole-3,4′-piperidin]-1′-yl]-5-(trifluoromethyl)benzonitrile]
The pKi of the first is lower: 5.00 to 6.00 for the first, 7.00 to 8.00 for the second. The second binds more tightly here.

`CCOc1ncccc1-c1ccc2c(c1)N(C(=O)CCN)CC21CCN(c2ccc(Cl)cc2C(F)(F)F)CC1` [1-22, 3-amino-1-{1′-[4-chloro-2-(trifluoromethyl)phenyl]-6-(2-ethoxypyridin-3-yl)-1,2-dihydrospiro[indole-3,4′-piperidin]-1-yl}propan-1-one] and `CCOc1ccc(N2CCC3(CC2)CN(C(=O)CCN)c2cc(-c4cccnc4OCC)ccc23)c(C(F)(F)F)n1` [1-23, 3-amino-1-{1′-[6-ethoxy-2-(trifluoromethyl)pyridin-3-yl]-6-(2-ethoxypyridin-3-yl)-1,2-dihydrospiro[indole-3,4′-piperidin]-1-yl}propan-1-one] fall in the same range of pKi: 7.00 to 8.00 for the first, 7.00 to 8.00 for the second.

`CCOc1ncccc1-c1ccc2c(c1)N(C(=O)CCN)CC21CCN(c2cc(C(F)(F)F)cc(C#N)n2)CC1` [1-24, 6-[1-(3-aminopropanoyl)-6-(2-ethoxypyridin-3-yl)-1,2-dihydrospiro[indole-3,4′-piperidin]-1′-yl]-4-(trifluoromethyl)pyridine-2-carbonitrile] and `CCOc1ccc(N2CCC3(CC2)CN(C(=O)CCN)c2cc(-c4cccnc4OCC)ccc23)nc1C(F)(F)F` [1-25, 3-amino-1-{1′-[5-ethoxy-6-(trifluoromethyl)pyridin-2-yl]-6-(2-ethoxypyridin-3-yl)-1,2-dihydrospiro[indole-3,4′-piperidin]-1-yl}propan-1-one] fall in the same range of pKi: 5.00 to 6.00 for the first, 5.00 to 6.00 for the second.

`CCOc1ncccc1-c1ccc2c(c1)N(C(=O)CCN)C(C)C21CCN(c2ccc(C(F)(F)F)cc2C#N)CC1` (centres unmarked) [1-26, 2-[1-(3-aminopropanoyl)-6-(2-ethoxypyridin-3-yl)-2-methyl-1,2-dihydrospiro[indole-3,4′-piperidin]-1′-yl]-5-(trifluoromethyl)benzonitrile] and `CCOc1ncccc1-c1ccc2c(c1)N(C(=O)NCCN)CC21CCN(c2ccc(C(F)(F)F)cc2C#N)CC1` [1-27, N-(2-aminoethyl)-1′-[2-cyano-4-(trifluoromethyl)phenyl]-6-(2-ethoxypyridin-3-yl)-1,2-dihydrospiro[indole-3,4′-piperidine]-1-carboxamide] fall in the same range of pKi: 7.00 to 8.00 for the first, 7.00 to 8.00 for the second.
